Among the data in patent US10414768B2, “Compounds for treating cystic fibrosis” (CENTRE NATIONAL DE LA RECHERCHE SCIENTIFIQUE (CNRS), priority 2014, dated 2019) are Emax values, retold here.

The test deals with T1, F508del-CFTR (Homo sapiens, UniProt P13569, DEL508-508).
T1 construct: expressed in transfected cells; host or cells: HeLa cells (spTCF-ΔF), selected with Zeocin
The experiment in a line: Iodide (125I) efflux from HeLa cells expressing F508del-CFTR. The test is classed as cell-based. To be noted: HeLa, activators Fsk 10 μM + Gst 30 μM, relative to VX809 normalized at 100%, untreated cells 3.6%. On the procedure:
Pharmacology, chemicals and reagents. The CFTR activator forskolin and potentiator genistein (Illek et al., 1995) were purchased from LC Laboratories (PKC Pharmaceuticals, Woburn, Mass.). We purchased DIDS (5-Isothiocyanato-2-[2-(4-isothiocyanato-2-sulfophenyl)ethenyl]benzene-1-sulfonic acid) and VX809 (3-(6-(1-(2,2-difluorobenzo[d][1,3]dioxol-5-yl)cyclopropanecarboxamido)-3-methylpyridin-2-yl)benzoic acid) from Selleckchem (Houston, USA). Stock solutions of F (10 mM), G (30 mM), CFTRinh-172 (10 mM), VX809 (10 mM), were prepared in DMSO. We prepared stock solution of iminosugars, miglustat and IsoLAB ([1,4-dideoxy-2-hydroxymethyl-1,4-imino-L-threitol]) dissolved in water (100 mM) before further dilution. Methods Cell culture. HeLa cells expressing wild-type CFTR (spTCF-wt) or F508del-CFTR (spTCF-ΔF) were cultured in Dulbecco's modified Eagle's medium+GlutaMAX™-I (Invitrogen) supplemented with 8% (v/v) fetal bovine serum (FBS), 1% (v/v) penicillin/streptomycin and were selected using Zeocin (50 μg/mL). Both cell lines were grown in standard culture conditions (37° C., 5% C02). Cells were plated in 35 mm plastic dishes for whole-cell patch-clamp recordings and western blot analysis and in 96-well plates for cytotoxicity assay. For all cell culture, culture media were renewed every 2 days. Western Blot analysis. Cell lysates (10 mM Tris, 1% Nonidet P-40, 0.5% sodium deoxycholate, pH 7.5) were separated 72 h after seeding for HeLa cells by 5% SDS-PAGE (50 μg of protein/well). After saturation, nitrocellulose membrane was incubated overnight at 4° C. in phosphate-buffered saline, 0.1% Tween 20 with 1 μg/ml mouse anti-CFTR monoclonal antibody (clone MAB3480; Chemicon International, Millipore Bioscience Research Reagents, Temecula, Calif.). After washing, goat peroxidase-conjugated anti-mouse IgG (1:10 000; Sigma-Aldrich) was used as secondary antibody. CFTR was visualized by chemiluminescence with ECL Western blotting detection reagent (GE Healthcare, Buckinghamshire, UK). Iodide efflux. CFTR chloride channel activity was assayed by measuring the rate of iodide (^125I) efflux from living cells. All experiments were performed with a MultiPROBE® IIex robotic liquid handling system (Perkin Elmer Life Sciences, Courtaboeuf, France). At the beginning of each experiment, cells were washed twice with efflux buffer containing (in mM) 136.9 NaCl, 5.4 KCl, 0.3 KH2PO4, 0.3 NaH2PO4, 1.3 CaCl2, 0.5 MgCl2, 0.4 MgSO4, 5.6 glucose and 10 HEPES, pH 7.4. Cells were incubated in efflux buffer containing Na^125I (1 μCi Na^125I/ml, NEN, Boston, Mass.) during 1 h at 37° C., then washed with efflux medium to remove extracellular ^125I. The loss of intracellular ^125I was determined by removing the medium with efflux buffer every 1 min for up to 10 min. The first three aliquots were used to establish a stable baseline in efflux buffer alone. A medium containing the activators of CFTR (Fsk 10 μM+Gst 30 μM) and the appropriate drug was used for the remaining aliquots. Residual radioactivity was extracted with 0.1 N NaOH/0.1% SDS, and determined using a Packard Cobra™ II gamma counter (Perkin Elmer life Sciences, Courtaboeuf, France). The fraction of initial intracellular ^125I lost during each time point was collected and time-dependent rates of ^125I efflux calculated from: ln (^125It1/^125It2)/(t1−t2) where ^125It is the intracellular ^125I at time t, and t1 and t2 successive time points. Curves were constructed by plotting rate of 125I versus time. All comparisons were based on maximal values for the time-dependent rates (k=peak rates, min−1) excluding the points used to establish the baseline (kpeak−kbasal, min^−1), and histograms were presented as percentage of activation. Time dependence. Time dependence of the compounds was assayed by measuring the time necessary for an optimal correction of the protein F508del-CFTR. […]

Some results are limits rather than exact numbers.

T1 sequence (P13569 with tags, fused parts or gaps DEL508-508): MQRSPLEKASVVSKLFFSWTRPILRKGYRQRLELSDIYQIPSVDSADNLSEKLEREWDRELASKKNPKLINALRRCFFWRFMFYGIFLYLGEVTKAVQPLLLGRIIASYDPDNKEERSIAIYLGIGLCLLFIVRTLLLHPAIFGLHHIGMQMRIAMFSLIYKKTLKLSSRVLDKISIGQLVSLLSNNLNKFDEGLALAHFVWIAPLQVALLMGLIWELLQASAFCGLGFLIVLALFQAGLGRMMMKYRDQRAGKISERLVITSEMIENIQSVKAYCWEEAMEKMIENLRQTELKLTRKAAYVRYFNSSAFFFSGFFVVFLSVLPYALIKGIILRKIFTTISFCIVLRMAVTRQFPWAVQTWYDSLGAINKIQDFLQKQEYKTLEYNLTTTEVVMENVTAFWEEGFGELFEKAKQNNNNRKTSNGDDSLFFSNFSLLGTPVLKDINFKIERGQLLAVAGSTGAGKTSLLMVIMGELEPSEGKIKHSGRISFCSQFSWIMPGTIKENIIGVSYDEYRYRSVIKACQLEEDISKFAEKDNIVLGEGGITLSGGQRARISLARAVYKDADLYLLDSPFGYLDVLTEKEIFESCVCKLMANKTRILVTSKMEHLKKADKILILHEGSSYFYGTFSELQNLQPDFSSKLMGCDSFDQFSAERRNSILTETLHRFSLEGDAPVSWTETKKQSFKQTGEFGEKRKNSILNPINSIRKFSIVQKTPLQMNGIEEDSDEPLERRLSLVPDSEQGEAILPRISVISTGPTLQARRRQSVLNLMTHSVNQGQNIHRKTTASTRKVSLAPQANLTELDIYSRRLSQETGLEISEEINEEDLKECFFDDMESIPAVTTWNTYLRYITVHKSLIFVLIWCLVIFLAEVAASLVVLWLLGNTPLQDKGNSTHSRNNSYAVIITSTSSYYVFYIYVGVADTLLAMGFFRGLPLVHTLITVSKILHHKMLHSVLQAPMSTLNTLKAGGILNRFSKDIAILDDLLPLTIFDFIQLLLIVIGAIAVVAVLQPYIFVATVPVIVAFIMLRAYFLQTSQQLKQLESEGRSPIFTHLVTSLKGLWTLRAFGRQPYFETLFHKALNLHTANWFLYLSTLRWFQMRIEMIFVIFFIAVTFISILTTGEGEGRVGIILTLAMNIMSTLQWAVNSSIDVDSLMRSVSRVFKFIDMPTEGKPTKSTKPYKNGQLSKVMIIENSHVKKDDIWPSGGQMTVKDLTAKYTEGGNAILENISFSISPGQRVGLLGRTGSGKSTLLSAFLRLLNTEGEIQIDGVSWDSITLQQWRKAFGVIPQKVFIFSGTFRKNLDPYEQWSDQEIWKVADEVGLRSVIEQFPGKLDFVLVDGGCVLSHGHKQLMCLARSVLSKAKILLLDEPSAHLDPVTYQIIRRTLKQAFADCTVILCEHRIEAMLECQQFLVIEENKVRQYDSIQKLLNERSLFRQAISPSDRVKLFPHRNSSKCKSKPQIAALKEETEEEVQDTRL

As for `NS(=O)(=O)c1ccc(-n2nnc3c(Cl)ncnc32)cc1` [Compound 64, 4-(7-chloro-3H-[1,2,3]triazolo[4,5-d]pyrimidin-3-yl)benzenesulfonamide], the Emax is 10 to 35%. Consider `Cc1nc(Cl)c(N)c(Nc2ccc(C(N)=O)cc2)n1` [Compound 65, 4-((5-amino-6-chloro-2-methylpyrimidin-4-yl)amino)benzamide], for which the maximal effect (Emax) was 35 to 60%.

Turning to `NC(=O)c1ccc(-n2cnc3c(Cl)nc(Cl)nc32)cc1` [Compound 79, 4-(2,6-dichloro-9H-purin-9-yl)benzamide], the Emax fell in the range of 10 to 35%.

Take `Clc1nc(Cl)c2ncn(-c3ccccc3)c2n1` [Compound 80, 2,6-dichloro-9-phenyl-9H-purine]: the Emax was 10 to 35%. The value for `C[C@H](Nc1nc(Cl)nc2c1ncn2-c1ccccc1)C(=O)OC(C)(C)C` [Compound 81, (S)-tert-butyl 2-((2-chloro-9-phenyl-9H-purin-6-yl)amino)propanoate] was 10 to 35%; that for `C[C@H](Nc1nc(NCCCc2ccccc2)nc2c1ncn2-c1ccccc1)C(=O)OC(C)(C)C` [Compound 82, (S)-tert-butyl 2-((9-phenyl-2-((3-phenylpropyl)amino)-9H-purin-6-yl)amino)propanoate] was 10 to 35%. The value for `C[C@H](Nc1nc(NCCCc2ccccc2)nc2c1ncn2-c1ccccc1)C(=O)O` [Compound 83, (S)-2-((9-phenyl-2-((3-phenylpropyl)amino)-9H-purin-6-yl)amino)propanoic acid] was 10 to 35%; that for `COc1ccc(CCNc2nc(NCc3ccc(OC)cc3)c3ncn(-c4ccccc4)c3n2)cc1` [Compound 85, N6-(4-methoxybenzyl)-N2-(4-methoxyphenethyl)-9-phenyl-9H-purine-2,6-diamine] was 10 to 35%; that for `CC(=O)c1ccc(-n2cnc3c(Cl)nc(Cl)nc32)cc1` [Compound 86, 1-(4-(2,6-dichloro-9H-purin-9-yl)phenyl)ethanone] was 10 to 35%.

For the molecule `COc1ccc(CNc2nc(NCc3ccc(OC)cc3)c3nc[nH]c3n2)cc1` [Compound 88, N2,N6-bis(4-methoxybenzyl)-9H-purine-2,6-diamine], the Emax is 10 to 35%. The value for `COc1ccc(CNc2nc(Cl)nc3c2ncn3Cc2ccc(C(N)=O)cc2)cc1` [Compound 89, 4-((2-chloro-6-((4-methoxybenzyl)amino)-9H-purin-9-yl)methyl)benzamide] was 10 to 35%; that for `COC(=O)c1ccc(-n2cnc3c(Cl)nc(Cl)nc32)cc1` [Compound 90, methyl 4-(2,6-dichloro-9H-purin-9-yl)benzoate] was 10 to 35%. For `COc1ccc(-n2cnc3c(O)nc(N)nc32)cc1OC` [Compound 91, 2-amino-9-(3,4-dimethoxyphenyl)-9H-purin-6-ol], the Emax lay in the range of 10 to 35%. As to `Nc1nc(O)c2ncn(-c3ccccc3)c2n1` [Compound 92, 2-amino-9-phenyl-9H-purin-6-ol], the Emax fell in the range of 10 to 35%.

With `NC(=O)c1ccc(Cn2cnc3c(Cl)nc(Cl)nc32)cc1` [Compound 93, 4-((2,6-dichloro-9H-purin-9-yl)methyl)benzamide], the Emax was in the range of 10 to 35%.

With `Clc1nc(Cl)c2ncn(-c3cccnc3)c2n1` [Compound 94, 2,6-dichloro-9-(pyridin-3-yl)-9H-purine], the Emax fell in the range of 10 to 35%. Take `NC(=O)c1cccc(-n2cnc3c(Cl)nc(Cl)nc32)c1` [Compound 95, 3-(2,6-dichloro-9H-purin-9-yl)benzamide]: the Emax was in the range of 10 to 35%.

As for `NC(=O)c1ccc(Nc2cc(O)nc(O)n2)cc1` [Compound 96, 4-((2,6-dihydroxypyrimidin-4-yl)amino)benzamide], the Emax is 10 to 35%. On to `COc1ccc(CNc2nc(Cl)nc3c2ncn3C2CCCCO2)cc1` (centres unmarked) [Compound 97, 2-chloro-N-(4-methoxybenzyl)-9-(tetrahydro-2H-pyran-2-yl)-9H-purin-6-amine], for which the Emax lay within 10 to 35%. As to `COc1ccc(CNc2nc(OCCc3ccccc3)nc3c2ncn3C2CCCCO2)cc1` (centres unmarked) [Compound 98, N-(4-methoxybenzyl)-2-phenethoxy-9-(tetrahydro-2H-pyran-2-yl)-9H-purin-6-amine], the Emax lay within 10 to 35%.

For the molecule `Nc1nc(Cl)c(NC=O)c(Cl)n1` [Compound 101, N-(2-amino-4,6-dichloropyrimidin-5-yl)formamide], the Emax lay within 35 to 60%. `Nc1ncnc(N)c1N` [Compound 102, pyrimidine-4,5,6-triamine]: the Emax was ≥ 60%.

On to `O=[N+]([O-])c1c(O)nc(O)nc1Cl` [Compound 103, 6-chloro-5-nitropyrimidine-2,4-diol], for which the Emax fell in the range of 10 to 35%. As to `Nc1nc(NCCc2ccc(F)cc2)nc2[nH]cnc12` [Compound 104, N2-(4-fluorophenethyl)-9H-purine-2,6-diamine], the Emax lay in the range of 35 to 60%.

`NC(=O)c1ccc(Nc2ccncc2[N+](=O)[O-])cc1` [Compound 105, 4-((3-nitropyridin-4-yl)amino)benzamide]: the Emax is ≥ 60%. `NC(=O)c1ccc(Nc2ncnc(Cl)c2[N+](=O)[O-])cc1` [Compound 106, 4-((6-chloro-5-nitropyrimidin-4-yl)amino)benzamide]: the maximum response (Emax) was in the range of 10 to 35%. `NC(=O)c1ccc(Nc2ncncc2N)cc1` [Compound 107, 4-((5-aminopyrimidin-4-yl)amino)benzamide]: the Emax was ≥ 60%. With `NC(=O)c1ccc(Sc2ncnc(Cl)c2N)cc1` [Compound 108, 4-((5-amino-6-chloropyrimidin-4-yl)thio)benzamide], the Emax fell in the range of 10 to 35%. For `Cc1ccc(Nc2ncnc(Cl)c2N)cc1` [Compound 109, 6-chloro-N4-(p-tolyl)pyrimidine-4,5-diamine], the Emax lay within 35 to 60%.

Consider `Nc1c(Cl)ncnc1Nc1ccc(F)cc1` [Compound 110, 6-chloro-N4-(4-fluorophenyl)pyrimidine-4,5-diamine], for which the Emax fell in the range of 10 to 35%. On to `Nc1cncnc1Cl` [Compound 111, 4-chloropyrimidin-5-amine], for which the Emax lay within 35 to 60%. As for `NC(=O)c1ccc(-n2ccc3c(Cl)ncnc32)cc1` [Compound 112, 4-(4-chloro-7H-pyrrolo[2,3-d]pyrimidin-7-yl)benzamide], the Emax lay in the range of 10 to 35%. Turning to `NC(=O)c1ccc(-c2nc(N)nc3[nH]cnc23)cc1` [Compound 113, 4-(2-amino-9H-purin-6-yl)benzamide], the Emax is ≥ 60%. With `NC(=O)c1ccc(Nc2c[n+]([O-])ccc2[N+](=O)[O-])cc1` [Compound 114, 3-((4-carbamoylphenyl)amino)-4-nitropyridine 1-oxide] the figure was ≥ 60%; with `NC(=O)c1ccc(Nc2ncccc2N)cc1` [Compound 115, 2-((4-carbamoylphenyl)amino)-pyridin-3-aminium chloride], ≥ 60%; with `NC(=O)c1ccc(-n2cnc3cncnc32)cc1` [Compound 116, 4-(9H-purin-9-yl)benzamide], 35 to 60%.

As to `Nc1nc(Nc2ccc(CO)cc2)c2ncn(-c3ccc(CO)cc3)c2n1` [Compound 117, (4-(2-amino-6-((4-(hydroxymethyl)phenyl)-amino)-9H-purin-9-yl)phenyl)methanol], the Emax was 35 to 60%. Consider `C[C@H](Nc1nc(Cl)nc2c1ncn2-c1ccccc1)C(=O)O` [Compound 118, (S)-2-((2-chloro-9-phenyl-9H-purin-6-yl)amino)propanoic acid], for which the Emax is ≥ 60%.

In general, Emax refers to the size of the effect at its maximum, as opposed to the concentration needed.
